Consider 16 compounds from PubChem BioAssay AID248 (DTP/NCI, 2004).

The subject of the experiment is L1210 leukemia ip in BDF1 mice, survival T/C. Put plainly: NCI In Vivo Anticancer Drug Screen. Data for tumor model L1210 Leukemia (intraperitoneal) in B6D2F1 (BDF1) mice. The conditions noted are these: higher = longer survival. The method in brief: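 Ratio derived from survival: compound-dosed mice over vehicle-dosed mice, all bearing a transplantable tumor.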
The mark [1] stands for this setting: endpoint: mean survival time, dose: 100.0 mg/kg/injection, schedule: Q04DX003 (ip), vehicle: saline.
[2] abbreviates: endpoint: mean survival time, dose: 200.0 mg/kg/injection, schedule: Q04DX003 (ip), vehicle: saline.
Where [3] appears, read: endpoint: mean survival time, dose: 400.0 mg/kg/injection, schedule: Q04DX003 (ip), vehicle: saline.
[4] abbreviates: endpoint: mean survival time, dose: 100.0 mg/kg/injection, schedule: Q01DX009 (ip), vehicle: Klucel (hydroxypropylcellulose) (HPC).
[5] abbreviates: endpoint: mean survival time, dose: 200.0 mg/kg/injection, schedule: Q01DX009 (ip), vehicle: Klucel (hydroxypropylcellulose) (HPC).
The mark [6] stands for this setting: endpoint: mean survival time, dose: 400.0 mg/kg/injection, schedule: Q01DX009 (ip), vehicle: Klucel (hydroxypropylcellulose) (HPC).
Where [7] appears, read: endpoint: mean survival time, dose: 75.0 mg/kg/injection, schedule: Q01DX001 (ip), vehicle: saline.
Where [8] appears, read: endpoint: mean survival time, dose: 150.0 mg/kg/injection, schedule: Q01DX001 (ip), vehicle: saline.
Setting [9] is: endpoint: mean survival time, dose: 400.0 mg/kg/injection, schedule: Q04DX002 (ip), vehicle: saline with Tween-80.

Values joined by “and” are separate entries in the source; they are usually repeats but may differ in a detail not shown here. Equal values may be shown once. Toxic doses and inconclusive results are not listed.

For the compound `CC(CC(=O)c1ccccc1)C(C(=O)c1ccccc1)c1ccccc1` (stereo unspecified), the T/C (endpoint: mean survival time, dose: 50.0 mg/kg/injection, schedule: Q01DX009 (ip), vehicle: other) is 101 % of control; the T/C (endpoint: mean survival time, dose: 100.0 mg/kg/injection, schedule: Q01DX009 (ip), vehicle: other) is 101 % of control; the T/C (endpoint: mean survival time, dose: 200.0 mg/kg/injection, schedule: Q01DX009 (ip), vehicle: other) is 101 % of control.

For `CCCP(CCC)N(CC)CC`, the T/C is 107 % of control under setting [1], 101 % of control under setting [2] and 104 % of control under setting [3].

Consider `COC(=O)c1cccc(N=NN(C)C)c1`, for which the T/C is 105 % of control (endpoint: mean survival time, dose: 50.0 mg/kg/injection, schedule: Q01DX009 (ip), vehicle: Klucel (hydroxypropylcellulose) (HPC)); 119 % of control under setting [4]; 108 % of control under setting [5]; 110 % of control (endpoint: median survival time, dose: 23.0 mg/kg/injection, schedule: Q01DX009 (ip), vehicle: steriod suspending solution); 100 % of control (endpoint: median survival time, dose: 65.0 mg/kg/injection, schedule: Q01DX001 (ip), vehicle: steriod suspending solution); 105 % of control (endpoint: median survival time, dose: 65.0 mg/kg/injection, schedule: Q04DX003 (ip), vehicle: steriod suspending solution). Further, the T/C runs as follows: (endpoint: median survival time, dose: 108.0 mg/kg/injection, schedule: Q01DX001 (ip), vehicle: steriod suspending solution) 100 % of control; (endpoint: median survival time, dose: 108.0 mg/kg/injection, schedule: Q04DX003 (ip), vehicle: steriod suspending solution) 110 % of control; (endpoint: median survival time, dose: 180.0 mg/kg/injection, schedule: Q01DX001 (ip), vehicle: steriod suspending solution) 110 % of control; (endpoint: median survival time, dose: 300.0 mg/kg/injection, schedule: Q01DX001 (ip), vehicle: steriod suspending solution) 110 % of control; (endpoint: median survival time, dose: 833.0 mg/kg/injection, schedule: Q01DX001 (ip), vehicle: steriod suspending solution) 100 % of control.

As to `NC(=O)c1ccc(C(F)(F)F)cc1O`, the T/C was 95 % of control under setting [4]; 100 % of control (endpoint: mean survival time, dose: 100.0 mg/kg/injection, schedule: Q04DX003 (ip), vehicle: Klucel (hydroxypropylcellulose) (HPC)); 95 % of control under setting [5]; 97 % of control (endpoint: mean survival time, dose: 200.0 mg/kg/injection, schedule: Q04DX003 (ip), vehicle: Klucel (hydroxypropylcellulose) (HPC)); 95 % of control under setting [6]; 95 % of control (endpoint: mean survival time, dose: 400.0 mg/kg/injection, schedule: Q04DX003 (ip), vehicle: Klucel (hydroxypropylcellulose) (HPC)).

As for `CC(=O)c1ccc2c(c1)Cc1cc(Br)ccc1-2`, the T/C is, setting by setting: (endpoint: mean survival time, dose: 100.0 mg/kg/injection, schedule: Q01DX001 (ip), vehicle: carboxymethylcellulose (CMC)) 97 % of control; (endpoint: mean survival time, dose: 200.0 mg/kg/injection, schedule: Q01DX001 (ip), vehicle: carboxymethylcellulose (CMC)) 89 % of control; (endpoint: mean survival time, dose: 400.0 mg/kg/injection, schedule: Q01DX001 (ip), vehicle: carboxymethylcellulose (CMC)) 97 % of control.

For the compound `O=C(O)CCSc1ccccc1`, the T/C runs as follows: (endpoint: mean survival time, dose: 40.0 mg/kg/injection, schedule: Q01DX009 (ip), vehicle: saline with Tween-80) 96 % of control; (endpoint: mean survival time, dose: 75.0 mg/kg/injection, schedule: Q01DX009 (ip), vehicle: saline with Tween-80) 88 % of control; (endpoint: mean survival time, dose: 75.0 mg/kg/injection, schedule: Q04DX003 (ip), vehicle: saline) 96 % of control; (endpoint: mean survival time, dose: 150.0 mg/kg/injection, schedule: Q01DX009 (ip), vehicle: saline with Tween-80) 101 % of control.

`COc1cc(CNC2CCCCC2)ccc1O`: the T/C under setting [7] was 97 % of control and the T/C under setting [8] is 110 % of control.

Turning to `CCC(=O)OCC1OC(n2cc(F)c(=O)[nH]c2=O)CC1OC(=O)CC` (stereo unspecified), the T/C is, setting by setting: (endpoint: mean survival time, dose: 50.0 mg/kg/injection, schedule: Q01DX001 (ip), vehicle: saline) 101 % of control; (endpoint: mean survival time, dose: 89.0 mg/kg/injection, schedule: Q01DX015 (ip), vehicle: saline) 117 % of control; (endpoint: mean survival time, dose: 100.0 mg/kg/injection, schedule: Q01DX001 (ip), vehicle: saline) 101 % of control; under setting [1], 104 % of control; (endpoint: mean survival time, dose: 200.0 mg/kg/injection, schedule: Q01DX001 (ip), vehicle: saline) 101 % of control; under setting [2], 114 % of control. For the same compound, the T/C reads like this: (endpoint: mean survival time, dose: 264.0 mg/kg/injection, schedule: Q04DX003 (ip), vehicle: saline) 111 % of control and 112 % of control; (endpoint: mean survival time, dose: 300.0 mg/kg/injection, schedule: Q01DX015 (ip), vehicle: saline) 115 % of control; (endpoint: mean survival time, dose: 400.0 mg/kg/injection, schedule: Q01DX001 (ip), vehicle: saline) 113 % of control; under setting [3], 108 % of control.

Turning to `CCOc1c(C(=O)O)cnc2ccccc12`, the T/C under setting [7] is 100 % of control.

Take `Cc1cc([N+](=O)[O-])ccc1NC(=O)c1c(Cl)c(Cl)c(C(=O)Nc2ccc([N+](=O)[O-])cc2C)c(Cl)c1Cl`: the T/C reads like this: under setting [4], 101 % of control; under setting [5], 94 % of control; under setting [6], 103 % of control.

In the case of `CCC1CC2CCC(c3cc4c(cc3OC)N(C)C3C(O)(C(=O)OC)C(OC(C)=O)C5(CC)C=CCN6CCC43C65)c3[nH]c4ccccc4c3CCN(C1)C2` (stereo unspecified), the T/C by setting is: (endpoint: mean survival time, dose: 0.8 mg/kg/injection, schedule: Q01DX001 (ip), vehicle: saline) 97 % of control; (endpoint: mean survival time, dose: 1.6 mg/kg/injection, schedule: Q01DX001 (ip), vehicle: saline) 97 % of control; (endpoint: mean survival time, dose: 3.2 mg/kg/injection, schedule: Q01DX001 (ip), vehicle: saline) 97 % of control; (endpoint: mean survival time, dose: 6.4 mg/kg/injection, schedule: Q01DX001 (ip), vehicle: saline) 100 % of control.

As for `Clc1cccc(N=C(Oc2cccc(Cl)c2)c2ccccc2)c1`, the T/C was 176 % of control (endpoint: mean survival time, dose: 25.6 mg/kg/injection, schedule: Q04DX002 (ip), vehicle: saline with Tween-80); 101 % of control (endpoint: mean survival time, dose: 64.0 mg/kg/injection, schedule: Q04DX002 (ip), vehicle: saline with Tween-80); 97 % of control (endpoint: mean survival time, dose: 160.0 mg/kg/injection, schedule: Q04DX002 (ip), vehicle: saline with Tween-80); 93 % of control under setting [9].

On to `O=C(O)/C=C\c1c[nH]c2ccccc12` (tested in a mixture with another compound), for which the T/C by setting is: under setting [7], 104 % of control; under setting [8], 105 % of control; (endpoint: mean survival time, dose: 300.0 mg/kg/injection, schedule: Q01DX001 (ip), vehicle: saline) 110 % of control.

`Cc1ccc(C(=O)/C=C/c2cccc3ccccc23)cc1`: the T/C by setting is: (endpoint: mean survival time, dose: 100.0 mg/kg/injection, schedule: Q01DX009 (ip), vehicle: saline with Tween-80) 102 % of control; (endpoint: mean survival time, dose: 100.0 mg/kg/injection, schedule: Q04DX002 (ip), vehicle: saline with Tween-80) 97 % of control; (endpoint: mean survival time, dose: 200.0 mg/kg/injection, schedule: Q01DX009 (ip), vehicle: saline with Tween-80) 96 % of control; (endpoint: mean survival time, dose: 200.0 mg/kg/injection, schedule: Q04DX002 (ip), vehicle: saline with Tween-80) 97 % of control; (endpoint: mean survival time, dose: 400.0 mg/kg/injection, schedule: Q01DX009 (ip), vehicle: saline with Tween-80) 96 % of control; under setting [9], 94 % of control.

With `Nc1nc(N)c2nc(CNc3ccc(C(=O)NC(CC(=O)O)C(=O)O)cc3)cnc2n1` (stereo unspecified), the T/C (endpoint: mean survival time, dose: 1.56 mg/kg/injection, schedule: Q01DX Z (ip), vehicle: saline) was 114 % of control; the T/C (endpoint: mean survival time, dose: 3.12 mg/kg/injection, schedule: Q01DX009 (ip), vehicle: saline) is 110 % of control; the T/C (endpoint: mean survival time, dose: 3.13 mg/kg/injection, schedule: Q01DX Z (ip), vehicle: saline) is 108 % of control; the T/C (endpoint: mean survival time, dose: 25.0 mg/kg/injection, schedule: Q01DX009 (ip), vehicle: saline) is 151 % of control; the T/C (endpoint: mean survival time, dose: 25.0 mg/kg/injection, schedule: Q01DX Z (ip), vehicle: saline) was 172 % of control; the T/C (endpoint: mean survival time, dose: 50.0 mg/kg/injection, schedule: Q01DX009 (ip), vehicle: saline) is 166 % of control. The T/C runs as follows: (endpoint: mean survival time, dose: 50.0 mg/kg/injection, schedule: Q01DX Z (ip), vehicle: saline) 118 % of control; (endpoint: mean survival time, dose: 100.0 mg/kg/injection, schedule: Q01DX009 (ip), vehicle: saline) 95 % of control; (endpoint: mean survival time, dose: 100.0 mg/kg/injection, schedule: Q01DX Z (ip), vehicle: saline) 114 % of control and 88 % of control; (endpoint: mean survival time, dose: 200.0 mg/kg/injection, schedule: Q01DX Z (ip), vehicle: saline) 95 % of control.

Turning to `CCCCOC(=O)CSC(=O)C(O)c1ccccc1` (stereo unspecified), the T/C runs as follows: (endpoint: mean survival time, dose: 100.0 mg/kg/injection, schedule: Q04DX003 (ip), vehicle: saline with Tween-80) 105 % of control; (endpoint: mean survival time, dose: 200.0 mg/kg/injection, schedule: Q04DX003 (ip), vehicle: saline with Tween-80) 101 % of control; (endpoint: mean survival time, dose: 400.0 mg/kg/injection, schedule: Q04DX003 (ip), vehicle: saline with Tween-80) 103 % of control.
